# In patent publication US20150141435A1, “2-PYRIDONE ANTIMICROBIAL COMPOSITIONS” (Emergent BioSolutions, priority 2010, published 2015):
# Where a name gives a salt, the structure may show the parent alone. Read-outs that look alike come from different tables or passages of the source.
# System: bacterial pathogens resistant against quinolones antibiotics
# Assay: MIC against quinolone-resistant bacterial pathogens (Table 5)
# Format: cell-based
# [1] = Enterococcus faecalis, read-out: MICs, Enterococcus faecalis vancomycin-resistant (VanB) clinical isolate, GP14
# [2] = Enterococcus faecium, read-out: MICs, Enterococcus faecium vancomycin-resistant (VanA) clinical isolate, GP17
# [3] = Providencia stuartii, GN24, read-out: MICs, Providencia stuartii multi-drug resistant clinical isolate, GN24
# [4] = Pseudomonas aeruginosa, GN64, read-out: MICs, Pseudomonas aeruginosa levofloxacin-resistant clinical isolate, GN64
# [5] = Staphylococcus aureus, MRSA, read-out: MICs, EMRSA16 Staphylococcus aureus (MRSA) SSCmec type 2, GP33
# [6] = Staphylococcus aureus, read-out: MICs, Staphylococcus aureus levofloxacin-resistant clinical isolate, amino acid changes GrlA, GrlB & GyrA, GP82
# [7] = Staphylococcus aureus, read-out: MICs, Staphylococcus aureus multi-drug-resistant clinical isolate, GP5
# [8] = Streptococcus pneumoniae, read-out: MICs, Streptococcus pneumoniae multi-drug resistant clinical isolate, GP24
# [9] = read-out: MICs, Acinetobacter haumannii levofloxacin-resistant clinical isolate, GN54
# [10] = Escherichia coli, GN03, read-out: MICs, Escherichia coli multi-drug resistant clinical isolate, GN03
SMILES,MIC [1] [µg/mL],MIC [2] [µg/mL],MIC [3] [µg/mL],MIC [4] [µg/mL],MIC [5] [µg/mL],MIC [6] [µg/mL],MIC [7] [µg/mL],MIC [8] [µg/mL],MIC [9] [µg/mL],MIC [10] [µg/mL],"MIC (Acinetobacter haumannii levofloxacin-resistant clinical isolate, GN54, read-out: MICs) [µg/mL]","MIC (EMRSA16 Staphylococcus aureus (MRSA) SSCmec type 2, GP33, read-out: MICs) [µg/mL]","MIC (Enterococcus faecalis vancomycin-resistant (VanB) clinical isolate, GP14, read-out: MICs) [µg/mL]","MIC (Enterococcus faecium vancomycin-resistant (VanA) clinical isolate, GP17, read-out: MICs) [µg/mL]","MIC (Escherichia coli multi-drug resistant clinical isolate, GN03, read-out: MICs) [µg/mL]","MIC (Providencia stuartii multi-drug resistant clinical isolate, GN24, read-out: MICs) [µg/mL]","MIC (Pseudomonas aeruginosa levofloxacin-resistant clinical isolate, GN64, read-out: MICs) [µg/mL]","MIC (Staphylococcus aureus multi-drug-resistant clinical isolate, GP5, read-out: MICs) [µg/mL]","MIC (Streptococcus pneumoniae multi-drug resistant clinical isolate, GP24, read-out: MICs) [µg/mL]"
"Cc1c(-c2ccc(N)c(F)c2)ccn2c(=O)c(C(=O)O)cc(C3CC3)c12 [Example 2 K salt, 8-(4-amino-3-fluoro-phenyl)-1-cyclopropyl-9-methyl-4-oxo-4H-quinolizine-3-carboxylic acid]",0.5,2,1,2,0.12,0.06,0.06,0.12,2,–,–,–,–,–,–,–,–,–,–
"Cc1c(-c2ccc(N)nc2)ccn2c(=O)c(C(=O)O)cc(C3CC3)c12 [Example 21 K salt, 8-(6-amino-pyridin-3-yl)-1-cyclopropyl-9-methyl-4-oxo-4H-quinolizine-3-carboxylic acid]",1,4,2,4,0.25,0.12,0.25,0.12,4,16,–,–,–,–,–,–,–,–,–
"Cc1c(-c2ccc3[nH]ncc3c2)ccn2c(=O)c(C(=O)O)cc(C3CC3)c12 [Example 23 K salt, 1-cyclopropyl-8-(1H-indazol-5-yl)-9-methyl-4-oxo-4H-quinolizine-3-carboxylic acid]",0.25,0.5,1,2,0.03,–,0.03,0.03,1,4,–,–,–,–,–,–,–,–,–
"Cc1c(-c2cc(F)c(N)cc2F)ccn2c(=O)c(C(=O)O)cc(C3CC3)c12 [Example 28 K salt, 8-(4-amino-2,5-difluoro-phenyl)-1-cyclopropyl-9-methyl-4-oxo-4H-quinolizine-3-carboxylic acid]",0.25,1,1,4,0.06,0.03,0.06,0.06,2,16,–,–,–,–,–,–,–,–,–
"Cc1c(-c2ccc(O)cc2)ccn2c(=O)c(C(=O)O)cc(C3CC3)c12 [Example 46 K salt, 1-cyclopropyl-8-(4-hydroxy-phenyl)-9-methyl-4-oxo-4H-quinolizine-3-carboxylic acid]",0.5,1,2,4,0.06,0.03,0.06,0.12,2,8,–,–,–,–,–,–,–,–,–
C[C@H]1COc2c(N3CCN(C)CC3)c(F)cc3c(=O)c(C(=O)O)cn1c23 [Levofloxacin],–,–,–,–,–,8,–,–,–,–,≥ 16,≥ 16,≥ 16,≥ 16,≥ 16,≥ 16,≥ 16,≥ 16,2
